Assay type in all cases: biochemical
For test [1], the target named is T1, CDK2/CyclinE1 (Homo sapiens, UniProt P24941).
T1 construct: purchased Carna 04-165
The test is described as follows: CDK2/CyclinE1 kinase inhibitory activity (Caliper mobility shift). To be noted: enzyme 3 nM, ATP 77 μM, 28° C. 30 min; read-out: CDK2/Cyclin E1 IC50. The method, then: CDK2/CyclinE1 kinase inhibitory activity (IC50): 5 μl of various dilutions of test compounds in 1×kinase buffer (50 mM HEPES pH 7.5, 10 mM MgCl2, 2 mM DTT and […] Brij-35) were mixed with 10 μL of CDK2/CyclinE1 (Carna, 04-165 #, final concentration 3 nM in 1×Kinase buffer) in 384 plates and incubated at room temperature for 10 min. To initiate each reaction, 10 μL of peptide solution containing fluorescently-labeled-peptide 18(5-FAM-QSPKKG-CONH2) (GL, 114202 #, final concentration 3000 nM) and ATP (final concentration 77 μM) in 1×Kinase buffer was added to each of the wells containing test compound and CDK2/CyclinE1 mixture. The reaction was then allowed to proceed at 28° C. for 30 min and terminated by the addition of 25 μL stop buffer (100 mM HEPES pH 7.5, 50 mM EDTA, 0.2% Coating Reagent #3 (Perkin Elmer, 760050 #) and 0.015% Brij-35).
(§1) Following the kinase reaction, Caliper EZ reader II (Downstream voltages: −500V, Upstream voltages: −2250V, Base pressure −0.5 PSI, Screen pressure −1.2 PSI) was used to separate the phosphorylated (product) and the unphosphorylated (substrate) fluorescently-labeled peptide 18 based on their different mobility. Both substrate and product were measured and the ratio of these values were used to generate % conversion by Caliper EZ reader II. These conversion values were then transformed into % inhibition of kinase activity using the formula: % Inhibition=[(MA−X)/(MA−MI)]×100% where MA=conversion value of DMSO only controls, MI=conversion value of no enzyme controls and X=conversion value at any given compound dose. IC50 values were then calculated by plotting dose-response curves and then using the XLfit application in Excel software.

Test [2] addresses T2, CDK6/CyclinD3 (Homo sapiens, UniProt Q00534).
T2 construct: purchased Carna 04-107
The test is described as follows: CDK6/CyclinD3 kinase inhibitory activity (Caliper mobility shift). To be noted: enzyme 15 nM, ATP 800 μM, 28° C. 30 min; read-out: CDK6/Cyclin D3 IC50. The essentials:
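Compound preincubated 10 min at room temperature with CDK6/CyclinD3 (15 nM final) in HEPES pH 7.5/MgCl2/DTT buffer; reaction with 5-FAM peptide (3000 nM) and ATP 800 μM, 30 min at 28°C, stopped with EDTA. Substrate/product separated by microfluidic mobility shift; % conversion converted to % inhibition, IC50 from dose-response curves.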

Test [3] addresses T3, CDK9/CyclinT1 (Homo sapiens, UniProt P50750).
T3 construct: purchased Millipore 14-685M
The test is described as follows: CDK9/CyclinT1 kinase inhibitory activity (Caliper mobility shift). To be noted: enzyme 12.5 nM, ATP 10M, 28° C. 30 min; read-out: CDK9/Cyclin T1 IC50. The method, then:
CDK9/CyclinT1 kinase inhibitory activity (IC50): 5 μl of various dilutions of test compound in 1× kinase buffer (20 mM HEPES, pH 7.5, 10 mM MgCl2, 2 mM DTT and 0.01% Triton X-100) was mixed with 10 μL of CDK9/CyclinT1 (Millipore, 14-685M #, final concentration 12.5 nM in 1× Kinase buffer) in 384 plates and incubated at room temperature for 10 min. To initiate each reaction, 10 μL of peptide solution containing fluorescently-labeled -peptide CTD3 (5-FAM-[…], GL, SY346885 #, final concentration 3000 nM) and ATP (final concentration […]) in 1× Kinase buffer was added to each of the wells containing test compound and CDK9/CyclinT1 mixture. The reaction is then allowed to proceed at 28° C. for 30 min and terminated by the addition of 25 μL stop buffer (100 mM HEPES pH 7.5, 50 mM EDTA, 0.2% Coating Reagent #3 (Perkin Elmer, 760050 #) and 0.015% Brij-35).
as §1, with “CTD3” for “18”

Structures are written as SMILES.

T2 sequence (Q00534 whole entry): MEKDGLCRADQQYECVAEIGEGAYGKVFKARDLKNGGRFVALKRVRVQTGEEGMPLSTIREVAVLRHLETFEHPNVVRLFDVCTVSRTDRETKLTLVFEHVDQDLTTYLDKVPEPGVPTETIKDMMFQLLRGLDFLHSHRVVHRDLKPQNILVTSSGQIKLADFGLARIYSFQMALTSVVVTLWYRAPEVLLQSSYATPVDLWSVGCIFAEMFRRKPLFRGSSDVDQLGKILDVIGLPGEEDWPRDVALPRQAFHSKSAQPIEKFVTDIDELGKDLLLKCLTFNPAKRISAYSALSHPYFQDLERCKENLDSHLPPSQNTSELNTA
T2 sequence (P30281 whole entry partner): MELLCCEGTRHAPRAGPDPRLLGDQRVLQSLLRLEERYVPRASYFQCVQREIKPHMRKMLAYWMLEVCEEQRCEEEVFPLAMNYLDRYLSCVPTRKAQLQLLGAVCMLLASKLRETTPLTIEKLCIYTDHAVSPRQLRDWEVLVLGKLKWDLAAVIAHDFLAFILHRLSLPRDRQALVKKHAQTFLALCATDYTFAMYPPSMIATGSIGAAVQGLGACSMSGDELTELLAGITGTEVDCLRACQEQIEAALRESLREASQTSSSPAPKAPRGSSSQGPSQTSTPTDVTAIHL
T3 sequence (P50750 whole entry): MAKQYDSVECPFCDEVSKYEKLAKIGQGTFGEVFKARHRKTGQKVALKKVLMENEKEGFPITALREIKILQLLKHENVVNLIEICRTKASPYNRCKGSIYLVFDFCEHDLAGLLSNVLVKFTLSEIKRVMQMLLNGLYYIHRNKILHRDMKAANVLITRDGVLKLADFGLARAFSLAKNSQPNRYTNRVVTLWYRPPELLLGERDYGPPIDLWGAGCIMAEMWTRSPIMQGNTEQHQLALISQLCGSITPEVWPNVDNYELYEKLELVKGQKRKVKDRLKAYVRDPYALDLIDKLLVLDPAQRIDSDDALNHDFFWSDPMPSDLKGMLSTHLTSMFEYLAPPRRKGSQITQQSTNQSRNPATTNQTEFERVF
T3 sequence (O60563 whole entry partner): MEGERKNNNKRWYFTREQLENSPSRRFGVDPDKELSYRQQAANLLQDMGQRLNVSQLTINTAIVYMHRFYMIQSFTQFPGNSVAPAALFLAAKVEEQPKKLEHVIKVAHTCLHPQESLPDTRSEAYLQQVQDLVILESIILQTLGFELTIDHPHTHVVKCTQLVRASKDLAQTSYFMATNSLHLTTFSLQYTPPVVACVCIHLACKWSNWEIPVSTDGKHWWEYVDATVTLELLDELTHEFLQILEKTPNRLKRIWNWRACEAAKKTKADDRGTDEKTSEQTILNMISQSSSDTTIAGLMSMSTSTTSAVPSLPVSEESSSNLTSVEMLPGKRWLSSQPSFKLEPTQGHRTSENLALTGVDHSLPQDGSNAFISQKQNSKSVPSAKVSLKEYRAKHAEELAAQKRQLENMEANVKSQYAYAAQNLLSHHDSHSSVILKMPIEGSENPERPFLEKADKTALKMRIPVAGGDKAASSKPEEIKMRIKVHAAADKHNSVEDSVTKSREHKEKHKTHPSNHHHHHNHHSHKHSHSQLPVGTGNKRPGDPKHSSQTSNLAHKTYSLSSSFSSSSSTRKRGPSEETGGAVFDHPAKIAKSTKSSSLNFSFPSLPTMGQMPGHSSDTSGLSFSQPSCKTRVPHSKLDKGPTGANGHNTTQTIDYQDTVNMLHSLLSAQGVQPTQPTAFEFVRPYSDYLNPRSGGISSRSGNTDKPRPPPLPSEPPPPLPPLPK

As to `Cc1nc2c(F)cc(-c3nc(N[C@@H]4CCOC[C@H]4O)ncc3Cl)cc2cc1C(C)NC1CC1` (single isomer, unassigned) [Example 73b], the IC50 in test [1] lay within 100 to 1000 nM; in test [2], 10 to 100 nM; in test [3], 100 to 1000 nM.
On to `CC1Cc2cnc3c(F)cc(-c4nc(N[C@@H]5CCOC[C@H]5O)ncc4Cl)cc3c2CN1` (single isomer, unassigned) [Example 34a], for which the IC50 in test [1], in test [2] and in test [3] was 10 to 100 nM each time.
Turning to `CC(C)n1c(C(C)(C)O)nc2c(F)cc(-c3cc(N[C@@H]4CCOC[C@H]4O)ncc3Cl)cc21` [Example 12, (3S,4R)-4-((5-chloro-4-(4-fluoro-2-(2-hydroxypropan-2-yl)-1-isopropyl-1H-benzo[d]imidazol-6-yl)pyridin-2-yl)amino)tetrahydro-2H-pyran-3-ol], the IC50 in test [1] is not below 1000 nM; in test [2] it was 100 to 1000 nM; in test [3], 100 to 1000 nM.
Regarding `CNC(C)(C)c1cnc2c(F)cc(-c3nc(N[C@@H]4CCOC[C@H]4O)ncc3Cl)cc2c1` [Example 36], the IC50 in test [1], in test [2] and in test [3] was 100 to 1000 nM in each case.
On to `[2H]c1nc2c(F)cc(-c3nc(N[C@@H]4CCOC[C@H]4O)ncc3C)cc2c2c1CC(C)(C)NC2` [Example 102], for which the results for the IC50 in test [1], in test [2] and in test [3] were not below 1000 nM, 100 to 1000 nM and 100 to 1000 nM, respectively.
In the case of `Cc1nc2c(F)cc(-c3nc(N[C@@H]4CCOC[C@H]4O)ncc3Cl)cc2c(Cl)c1C(C)O` (single isomer, unassigned) [Example 35b], the IC50 in test [1] was 100 to 1000 nM; in test [2], 100 to 1000 nM; in test [3], not below 1000 nM.
Regarding `O[C@@H]1COCC[C@H]1Nc1ncc(Cl)c(-c2cc(F)c3ncc4c(c3c2)CCNC4)n1` [Example 8, (3S,4R)-4-((5-chloro-4-(7-fluoro-1,2,3,4-tetrahydrobenzo[c][2,7]naphthyridin-9-yl)pyrimidin-2-yl)amino)tetrahydro-2H-pyran-3-ol], the values for the IC50 in test [1], in test [2] and in test [3] were less than 10 nM, 10 to 100 nM and 10 to 100 nM, respectively.
In the case of `Cc1nc2c(F)cc(-c3nc(N[C@@H]4CCOC[C@H]4O)ncc3Cl)cc2c(Cl)c1C(C)O` (single isomer, unassigned) [Example 35a], the IC50 fell in the range of 100 to 1000 nM in test [1], 10 to 100 nM in test [2] and 100 to 1000 nM in test [3].
As for `CC(C)(O)c1cnc2c(F)cc(-c3nc(N[C@@H]4CCOC[C@H]4O)ncc3Cl)cc2c1` [Example 1, (3S,4R)-4-((5-chloro-4-(8-fluoro-3-(2-hydroxypropan-2-yl)quinolin-6-yl)pyrimidin-2-yl)amino)tetrahydro-2H-pyran-3-ol], the IC50 in test [1] is not below 1000 nM; in test [2], 100 to 1000 nM; in test [3], not below 1000 nM.
For `[2H]C([2H])([2H])C(O)(c1cc2cc(-c3nc(N[C@@H]4CCOC[C@H]4O)ncc3Cl)cc(F)c2nc1C)C([2H])([2H])[2H]` [Example 60, (3S,4R)-4-((5-chloro-4-(8-fluoro-3-(2-hydroxypropan-2-yl-1,1,1,3,3,3-d6)-2-methylquinolin-6-yl)pyrimidin-2-yl)amino)tetrahydro-2H-pyran-3-ol], the IC50 in test [1] is not below 1000 nM; in test [2], 100 to 1000 nM; in test [3], 100 to 1000 nM.
For the compound `[2H]c1nc2c(F)cc(-c3nc(N[C@@H]4CCOC[C@H]4O)ncc3Cl)cc2c2c1CC(C)(C)NC2` [Example 100], the IC50 in test [1] was 100 to 1000 nM; in test [2], 10 to 100 nM; in test [3] it was 10 to 100 nM.
Turning to `CC1(C)Cc2cnc3c(F)cc(-c4nc(N[C@@H]5CCOC[C@H]5O)ncc4Cl)cc3c2CN1` [Example 30], the figures for the IC50 in test [1], in test [2] and in test [3] were 100 to 1000 nM, 10 to 100 nM and 10 to 100 nM, respectively.
With `O[C@@H]1COCC[C@H]1Nc1ncc(Cl)c(-c2cc(F)c3ncc4c(c3c2)C2CCC(C4)N2)n1` (single isomer, unassigned) [Example 20b], the IC50 in test [1], in test [2] and in test [3] was 100 to 1000 nM throughout.
As to `Cc1c(C(C)(C)O)cnc2c(F)cc(-c3nc(N[C@@H]4CCOC[C@H]4O)ncc3Cl)cc12` [Example 7, (3S,4R)-4-((5-chloro-4-(8-fluoro-3-(2-hydroxypropan-2-yl)-4-methylquinolin-6-yl)pyrimidin-2-yl)amino)tetrahydro-2H-pyran-3-ol], the values for the IC50 in test [1], in test [2] and in test [3] were 100 to 1000 nM, 10 to 100 nM and 100 to 1000 nM, respectively.
Take `[2H]c1nc(N[C@@H]2CCOC[C@H]2O)nc(-c2cc(F)c3nc(C)c(C(C)(C)O)cc3c2)c1F` [Example 83]: the IC50 in test [1], in test [2] and in test [3] was 100 to 1000 nM throughout.
In the case of `Cc1nc2c(F)cc(-c3nc(N[C@@H]4CCOC[C@H]4O)ncc3Cl)cc2c2c1CCN(C)C2` [Example 37], the IC50 in test [1] is not below 1000 nM; in test [2], 100 to 1000 nM; in test [3], not below 1000 nM.
Turning to `CC(C)(N)c1cnc2c(F)cc(-c3nc(N[C@@H]4CCOC[C@H]4O)ncc3Cl)cc2c1` [Example 14, (3S,4R)-4-((4-(3-(2-aminopropan-2-yl)-8-fluoroquinolin-6-yl)-5-chloropyrimidin-2-yl)amino)tetrahydro-2H-pyran-3-ol], the IC50 lay within 10 to 100 nM in test [1], 100 to 1000 nM in test [2] and 100 to 1000 nM in test [3].
Turning to `CC(C)(O)c1cnc2c(F)cc(-c3nc(N[C@@H]4CCOC[C@H]4O)ncc3C#N)cc2c1Cl` [Example 41], the IC50 in test [1] was 100 to 1000 nM; in test [2] it was 10 to 100 nM; in test [3], not below 1000 nM.
On the same counts, the results for `O[C@@H]1COCC[C@H]1Nc1ncc(Cl)c(-c2cc(F)c3ncc4c(c3c2)CNCC4)n1` [Example 9, (3S,4R)-4-((5-chloro-4-(7-fluoro-1,2,3,4-tetrahydrobenzo[c][2,6]naphthyridin-9-yl)pyrimidin-2-yl)amino)tetrahydro-2H-pyran-3-ol] are 100 to 1000 nM, 100 to 1000 nM and 100 to 1000 nM.
On the same counts, the results for `[2H]c1nc2c(F)cc(-c3nc(N[C@@H]4CCOC[C@H]4O)ncc3C)cc2c2c1CC1(CC1)NC2` [Example 67] are not below 1000 nM, not below 1000 nM and 100 to 1000 nM.
On the same counts, the results for `CNC(C)c1cc2cc(-c3nc(N[C@@H]4CCOC[C@H]4O)ncc3Cl)cc(F)c2nc1C` (single isomer, unassigned) [Example 45b] are not below 1000 nM, 100 to 1000 nM and not below 1000 nM.
In the case of `CC(O)c1cnc2c(F)cc(-c3nc(N[C@@H]4CCOC[C@H]4O)ncc3Cl)cc2c1Cl` (single isomer, unassigned) [Example 40a], the IC50 in test [1], in test [2] and in test [3] was 100 to 1000 nM each time.
Consider `Cc1nc2c(F)cc(-c3nc(N[C@@H]4CCOC[C@H]4O)ncc3F)cc2c(C)c1C(C)O` (single isomer, unassigned) [Example 81b], for which the IC50 in test [1] was 100 to 1000 nM; in test [2] it was 10 to 100 nM; in test [3] it was 100 to 1000 nM.

These data come from patent publication US20260242395A1, “AMINOHETEROARYL KINASE INHIBITORS” (ALLORION THERAPEUTICS INC, priority 2022, published 2026).
